The target of experiment [1] is Carbonic anhydrase 9 (Homo sapiens, UniProt Q16790).
Description: Inhibitory activity against Carbonic anhydrase IX
In experiment [2] the target is Carbonic anhydrase 1 (Homo sapiens, UniProt P00915).
Description: Inhibitory activity against Carbonic anhydrase I

Each structure is given as a SMILES string. pKi: −log10 of the molar value.

Carbonic anhydrase 1, sequence (P00915 whole entry): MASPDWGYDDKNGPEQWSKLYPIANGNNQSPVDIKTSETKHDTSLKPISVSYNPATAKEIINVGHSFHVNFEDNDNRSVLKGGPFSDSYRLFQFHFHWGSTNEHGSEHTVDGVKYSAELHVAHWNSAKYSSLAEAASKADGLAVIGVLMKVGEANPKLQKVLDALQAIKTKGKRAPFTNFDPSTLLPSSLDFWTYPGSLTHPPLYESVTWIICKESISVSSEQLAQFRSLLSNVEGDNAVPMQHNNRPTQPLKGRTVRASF

A word on the pKi: it is the Ki on a negative log10 scale, so that one unit is a factor of ten. Lower therefore signals a large Ki. For `COC(=O)c1ccccc1S(N)(=O)=O`, the negative-log Ki (pKi) in experiment [1] is 6.17.
In experiment [1], `NS(=O)(=O)c1ccccc1C(=O)NNC(=O)NS(=O)(=O)c1ccc(F)cc1` gave a pKi of 7.19. Against the preceding compound, the pKi is 1.02 log units higher.
As to `Cc1ccccc1S(=O)(=O)NC(=O)NNC(=O)c1ccc(S(N)(=O)=O)cc1`, in experiment [1], the pKi was 7.49.
As to `Cc1ccc(S(=O)(=O)NC(=O)NNC(=O)c2ccccc2S(N)(=O)=O)cc1`, in experiment [1], the pKi is 7.15.
In experiment [1], `Cc1ccc(S(=O)(=O)NC(=O)NNC(=O)c2ccc(S(N)(=O)=O)cc2)cc1` gave a pKi of 8.24.
In the case of `NS(=O)(=O)c1ccc(C(=O)NNC(=O)Nc2ccc(C34CC5CC(CC(C5)C3)C4)cc2)cc1`, in experiment [1], the pKi was 7.62.
Still for that read-out and setting: for `NNc1ccc(S(N)(=O)=O)cc1F` the value was 6.87.
Same read-out and setting: for `NNc1ccc(S(N)(=O)=O)cc1Cl` the value was 6.83; for `NS(=O)(=O)c1ccc(C(=O)NNC(=O)Nc2ccc(Oc3ccccc3)cc2)cc1`, 8.10.
With `NS(=O)(=O)c1ccc(C(=O)NNC(=O)Nc2ccc(Cc3ccccc3)cc2)cc1`, in experiment [1], the pKi was 8.15. The pKi values of the last two compounds are within 0.2 log units of each other.
Compound `NS(=O)(=O)c1ccc(C(=O)NNC(=O)NC2c3ccccc3-c3ccccc32)cc1` showed a negative logarithm of the Ki (pKi) in experiment [1] of 7.89.
On the same count and under the same terms, then `NS(=O)(=O)c1ccc(C(=O)NNC(=O)NS(=O)(=O)c2ccc(Cl)cc2)cc1`, with 8.27; and `NS(=O)(=O)c1ccc(C(=O)NNC(=O)Nc2ccc(Cl)c(Cl)c2)cc1`, with 8.10; and `NS(=O)(=O)c1ccccc1C(=O)NNC(=O)NS(=O)(=O)c1ccccc1`, with 7.12.
On the same count and under the same terms, for `Cc1ccccc1S(=O)(=O)NC(=O)NNC(=O)c1ccccc1S(N)(=O)=O` the value was 7.08; for `NS(=O)(=O)c1ccccc1C(=O)NNC(=O)NS(=O)(=O)c1ccc(Cl)cc1`, 7.14.
Still for that read-out and setting: then `NS(=O)(=O)c1ccc(C(=O)NNC(=O)NS(=O)(=O)c2ccc(F)cc2)cc1`, with 8.21; and `NS(=O)(=O)c1ccc(C(=O)NNC(=O)NS(=O)(=O)c2ccccc2)cc1`, with 7.46; and `NNC(=O)c1ccccc1S(N)(=O)=O`, with 6.26.
Consider `NS(=O)(=O)c1ccc(C(=O)NNC(=O)Nc2ccc(-c3ccccc3)cc2)cc1`, for which the pKi in experiment [1] is 8.27.
On the same count and under the same terms, then `CC(=O)c1ccc(NC(=O)NNC(=O)c2ccc(S(N)(=O)=O)cc2)cc1`, with 8.08.
In experiment [1], `NS(=O)(=O)c1ccc(C(=O)NNC(=O)Nc2ccc(Br)cc2)cc1` had a negative-log Ki (pKi) of 8.07.
The compound `NNc1ccc(S(N)(=O)=O)cc1` showed a pKi in experiment [2] of 5.41.
Compound `NS(=O)(=O)c1ccc(C(=O)O)cc1` [CARZENIDE] had a pKi in experiment [1] of 6.46.

Source of the values: ChEMBL document CHEMBL1145204, “Carbonic anhydrase inhibitors: synthesis and inhibition of cytosolic/membrane-associated carbonic anhydrase isozymes I, II, and IX with sulfonamides incorporating hydrazino moieties” (J Med Chem, 2005).
